Each block holds one molecule with its values, some of them ahead of it.
What was measured:
DCIR-Fc [1] = molecular target: T1, DCIR-Fc (Mus musculus, UniProt Q9QZ15); assay: Glycan microarray with evanescent-field fluorescence-assisted detection: binding of DCIR-Fc to glycan probes; design: species or system murine; details: glycan microarray, DCIR-Fc
T1 construct: covering the extracellular domain (EC) from 70 to 238 at the amino acid level; made in house; host or cells: HEK293T cells
T1 sequence (Q9QZ15 70-238): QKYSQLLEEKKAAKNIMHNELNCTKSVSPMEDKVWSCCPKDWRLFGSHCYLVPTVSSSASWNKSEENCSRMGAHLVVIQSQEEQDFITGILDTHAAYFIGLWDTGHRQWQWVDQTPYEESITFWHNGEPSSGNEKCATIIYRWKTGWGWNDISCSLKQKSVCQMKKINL
Text: (§1) Murine DCIR cDNA, covering the extracellular domain (EC) from 70 to 238 at the amino acid level, was subcloned into pFUSE-hIgG2-Fc2 vector (Invitrogen) at Bgl II site. cDNA coding the extracellular domain was generated with a primer set; sense 5′-[…]-3′ (sequence No. 11) and anti-sense 5′-[…]-3′ (sequence No. 12). Site-directed mutations of the CRD domain, in which glutamic acid and serine were replaced to alanine, were established by KOD-Plus-Mutagenesis Kit (TOYOBO). The following primer set was used for the mutagenesis: E197A sense 5′-[…]-3′(sequence No. 13), anti-sense 5′-[…]-3′(sequence No. 14); S199A sense 5′-[…]-3′(sequence No. 15), anti-sense 5′-[…]-3′ (sequence No. 16); E197A/S199A sense 5′-[…]-3′ (sequence No. 17), anti-sense 5′-[…]-3′(sequence No. 18).
(§2) The plasmids were transferred into HEK293T cells by Lipofectamine LTX (Invitrogen), and the cells were incubated in Opti-MEM (Invitrogen) for 15 days and the medium was changed every 3 days. The Fc-chimeric proteins were purified from collected supernatant by affinity chromatography on Protein A-Sepharose (GE Healthcare UK)
(§3) The glycan-protein interaction was detected in a glycan microarray with an evanescent-field fluorescence-assisted detection system. Briefly, glycan probes, including glycoproteins and glycoside-polyacrylamide (PAA), were immobilized on microarray-grade epoxy-activated glass slides (Schott AG) in triplicate spots using a noncontact microarray printing robot, MicroSys 4000 (Genomic Solutions). The glass slides were incubated at 25° C. for 3 hours and washed with a reaction buffer consisting of 25 mM Tris HCl (pH 7.4) containing 0.8% NaCl, 1% (v/v) Triton-X, 1 mM MnCl2, and 1 mM CaCl2 to remove […], followed by blocking in TBS (25 mM Tris-HCl (pH 7.4) with 0.8% NaCl and 1% BSA) at 20° C. for 1 hour. A protein complex of DCIR-Fc, mutant DCIR-Fc, or Fc with Cy3-labelled anti-human Fc antibodies was formed in a reaction buffer at RT by 20 minutes kept in the dark.
(§4) The protein complex was applied to a glass slide at 100 μl per chamber, and was incubated at 20° C. for 3 hours. Without washing, the binding was detected with an evanescent-field activated fluorescence scanner, SC-Profiler (GP Bioscience), and the data was analyzed by the Array Pro analyzer Ver. 4.5 (Media Cybernetics, Inc.) Subtracted raw intensity from background intensity is net intensity, which is presented as the average±s.d. of triplicate spots.

DCIR-Fc [2] = assay: as above; design: species or system murine; details: for binding of mutant DCIR-Fc (CRD mutants) to the glycan: glycan microarray; for Ca2+ and CRD dependency of DCIR-Fc binding: with or without EDTA, CRD mutants
Text: as §1, §2, §3, §4

wild-type BMMs [3] = assay: Western blotting of M-CSF- and RANKL-mediated signals, wild-type BMMs; assay type: cell-based, mouse; details: wild-type BMMs pre-treated with NA2
Procedure: (§5) For western blotting of M-CSF- and RANKL-mediated signals, BMMs were re-plated in a 12-well plate at 250,000 cells per well in the presence of 5 ng/ml of M-CSF. 24 hours after the culture, the BMMs were left in a serum-free medium without M-CSF for 6 hours before stimulation. The cells were activated with 20 ng/ml of M-CSF or 100 ng/ml of RANKL for predetermined periods. […]
(§6) Wild-type and Dcir−/− BMMs were induced to differentiate osteoclasts in the presence of M-CSF and RANKL. […] The number of osteoclasts was determined by TRAP staining. […] Cell lysates were analyzed by western blotting to detect the phosphorylation levels of signal components.

[4] = tested on: Flt3L-induced dendritic cells (DCs); assay: Pro-inflammatory cytokine production by LPS-activated Flt3L-induced dendritic cells (ELISA); assay type: cell-based, mouse; details: 1 μg/ml NA2, 24 hours, versus without NA2
Procedure: Flt3L-induced dendritic cells (DCs) were prepared by the following process. Bone marrow cells were isolated from femurs of wild-type mice. Red blood cells were destroyed in a hemolysis buffer (consisting of 140 mM NH4Cl and 17 mM Tris-HCl, pH 7.2) for 10 minutes on ice. The cells were seeded at 1 million cells per well in 24-well plates in the presence of 100 ng/ml of recombinant human Flt3L in a medium containing 10% FBS, antibiotic mixtures, essential amino acids and 2-mercaptoethanol. At day 4, 100 ng/ml of recombinant human Flt3L (Milteny) was added in each well and further cultured for additional 4 days. At day 8, the cells were harvested and re-seeded at 500,000 cells per well in 96-well plates.
The DCs thus obtained were activated with agonistic reagents (LPS) with or without 1 μg/ml of a NA2 for 24 hours. The supernatants were collected and the amounts of pro-inflammatory cytokines (IL-6 and p40) were determined by ELISA. As a result, the amount of pro-inflammatory cytokines were smaller when the DCs were stimulated by LPS in the presence of a NA2 than without the same (FIG. 50). In FIG. 50, the left-side two bars represent the amounts of pro-inflammatory cytokines without LPS stimulation, and the right-side two bars represent the amounts of pro-inflammatory cytokines with LPS stimulation, where the black bars represent the cases in the presence of a NA2.

wild-type BMMs [5] = assay: Osteoclast formation by TRAP staining, wild-type BMMs with M-CSF and RANKL; assay type: cell-based, mouse
Procedure: To form M-CSF-dependent bone marrow-derived macrophages, BM cells were isolated by flushing the bone marrow cavity of femurs with α-minimal essential medium (α-MEM) (Gibco, trade name, Life Technologies), supplemented with penicillin (100 units/ml), streptomycin (100 μg/ml) and 10% heat-inactivated fetal bovine serum. Red blood cells were destroyed in a hemolysis buffer (consisting of 140 mM NH4Cl and 17 mM Tris-HCl, pH 7.2) for 10 minutes on ice, and the treated cells were pre-incubated in a 100 mm dish for 1 hour. The non-adherent cells (hematopoietic cells) were harvested and seeded at 50,000 cells per well in 96-well plates in the presence of 20 ng/ml of recombinant human M-CSF (R&D Systems) for 2 days. The cells proliferated in response to M-CSF were defined as BMMs. […]
Adherent cells were fixed in 10% formalin for 3 minutes, followed by further fixation in a fixative buffer consisting of 50% ethanol and 50% acetone for 1 minute. […] TRAP-positive cells with more than 3 or 10 nuclei were counted as multinucleated osteoclasts.
Wild-type and Dcir−/− BMMs were induced to differentiate osteoclasts in the presence of M-CSF and RANKL. […] The number of osteoclasts was determined by TRAP staining. […] Cell lysates were analyzed by western blotting to detect the phosphorylation levels of signal components. […]

Dcir−/− BMMs = assay: Western blotting of M-CSF- and RANKL-mediated signals, Dcir−/− BMMs; assay type: cell-based, mouse; details: FIG. 49: Dcir−/− BMMs pre-treated with NA2 1 μg/ml for 6 hours
Procedure: as §5, §6

[6] = tested on: primary murine osteoblasts; assay: Effect of IFN-γ on osteoblast formation (alizarin red staining, osteogenic gene expression); assay type: cell-based; details: exogenous addition, dose-dependent
Procedure: Calvarial cells were prepared by sequential digestion followed by a standard method. Briefly, calvavria from 1 to 2-day old neonates were surgically isolated and adherent mesenchymal tissues were trimmed. The neonatal calvaria underwent a first digestion with a degrading solution containing 0.1% collagenase (Wako Pure Chemical Industries) and 0.1% dispase (Roche Diagnostics Japan) for 10 minutes at 37° C. with agitation. The solution was discarded to remove debris, and the remaining calvaria were further digested by the same degrading solution for 1 hour at 37° C. The cells isolated from the serial digestions were suspended in an a-MEM containing 10% FCS, penicillin (100 units/ml) and streptomycin (100 μg/ml), and plated at the concentration of 200,000 cells/well in 12-well plates. Two days after the culture, the cells were incubated in an osteogenic medium (α-MEM supplemented with 10% FBS, 50 μg/ml ascorbic acid (Sigma-Aldrich), 10 mM β-glycerophosphate (Calbiochem) and antibiotics) for 14 days or 21 days, with the medium replaced every 3 days for the entire duration.
Murine osteoblasts were cultured and differentiated according to the protocol as mentioned above. […]
The mineralization formation of osteoblastic cells was detected by the von Kossa method and staining with alizarin red S (sodium alizarin sulphonate). […]

binding of DCIR-Fc to the glycan (DCIR-Fc [1]): bound | binding of mutant DCIR-Fc (CRD mutants) to the glycan (DCIR-Fc [2]): remained bound | Ca2+ and CRD dependency of DCIR-Fc binding (DCIR-Fc [2]): Ca^2+-dependent
Molecule: heparin

binding of DCIR-Fc to the glycan (DCIR-Fc [1]): bound strongly | Ca2+ and CRD dependency of DCIR-Fc binding (DCIR-Fc [2]): Ca^2+ and CRD were required
Molecule: asialo-biantennary N-glycan [NA2]
Akt phosphorylation in response to M-CSF and RANKL (wild-type BMMs [3]): decrease | amount of pro-inflammatory cytokine IL-6 [4]: smaller | amount of pro-inflammatory cytokine p40 [4]: smaller | osteoclast formation in wild-type BMMs (wild-type BMMs [5]): significant decrease | MAPKs and IκBα upon M-CSF and RANKL stimuli (Dcir−/− BMMs): no effect

binding of DCIR-Fc to the glycan (DCIR-Fc [1]): bound | binding of mutant DCIR-Fc (CRD mutants) to the glycan (DCIR-Fc [2]): no binding | Ca2+ and CRD dependency of DCIR-Fc binding (DCIR-Fc [2]): Ca^2+-dependent
Molecule: asialo-transferrin: glycoprotein probe on the glycan microarray; transferrin without sialic acid

B1: IFN-γ: recombinant murine IFN-γ (PeproTech) (protein, UniProt P01580 23-155, looked up)
Interferon gamma: HGTVIESLESLNNYFNSSGIDVEEKSLFLDIWRNWQKDGDMKILQSQIISFYLRLFEVLKDNQAISNNISVIESHLITTFFSNSKAKKDAFMSIAKFEVNNPQVQRQAFNELIRVVHQLLPESSLRKRKRSRC
alizarin red staining (ability of osteoblasts to mineralize) [6]: augmented | expression of osteogenic genes ([6]; day 14 culture): augmented

From US10792300B2, “Dendritic cell immune receptor activator, method for activating dendritic cell immune receptor, osteoclast formation inhibitor, method for inhibiting osteoclast formation, dendritic cell differentiation/proliferation inhibitor, method for inhibiting dendritic cell differentiation/proliferation, …” (TOKYO UNIVERSITY OF SCIENCE FOUNDATION, priority 2014, dated 2020)
